Each structure is given as a SMILES string. Where only a bound is given, the exact number is not on record here.

Results on two compounds are retold here after patent publication US20250144110A1, “COMPOSITIONS OF AUTOPHAGY MODULATING AGENTS AND USES THEREOF” (Washington University, priority 2022, published 2025).

A short description of data set [1]: Liver microsomal stability, mouse. It is filed as in vitro ADME. As to conditions: mouse liver microsomes; read-out: LM stability Mouse t ½. An excerpt: (§1) As described herein, continued lead optimization afforded potent quinolones.
The test system of the next data set is p62/SQSTM1 in HD-MSNs. Description: p62 immunoblot in HD-MSNs. In kind it is cell-based, human. As to conditions: 0.5 μM, PID26, vs DMSO. The protocol: (§2) FIG. 1A-FIG. 1E is an exemplary embodiment showing autophagy activator rescues HD-MSNs from degeneration in accordance with the present disclosure. FIG. 1A depicts the chemical structure of Ex 3. FIG. 1B includes a representative immunoblot (left) for steady state levels of α1-antitrypsin Z variant (ATZ) and β-actin in the HTO/Z cell line model of α1-antitrypsin deficiency after 24 hr treatment with DMSO alone or Ex 3 in DMSO at 0.5 and 2.5 μM and a bar graph showing the normalized intensity (right) calculated from immunoblot images for 0.5 μM versus DMSO control (Individual data plotted, n=4 biological replicates; *p=0.003 by t-test; mean+/−s.e.m). FIG. 1C includes an immunoblot for p62 and GAPDH in HD-MSNs treated with DMSO or 0.5 μM Ex 3 at PID26 (left) and a bar graph showing intensity values were normalized by GAPDH intensities and the relative fold change over DMSO condition was calculated from immunoblot images of three independent HD-MSN lines (right). Each dot represents reprogrammed MSNs from three independent HD-MSN lines. […] FIG. 1E includes example photographs (top) of HD-MSNs treated with DMSO or 0.5 μM Ex 3 (PID 30) expressing the tandem monomeric RFP-GFP-LC3 reporter and a bar graph (bottom) showing quantification of autophagosome (i.e., RFP+, GFP+ puncta) and autolysosome (i.e., RFP+, GFP− puncta) compartments from three independent HD-MSNs. […]

The subject of data set [2] is HD-MSNs. Put plainly: Autophagic vacuoles by CYTO-ID green in HD-MSNs. In kind it is cell-based, human. As to conditions: 0.5 μM, PID26, vs DMSO. On the procedure:
as §2

Data set [3] has as its system HD-MSNs expressing the RFP-GFP-LC3 reporter. Description: Tandem RFP-GFP-LC3 reporter in HD-MSNs. In kind it is cell-based, human. As to conditions: 0.5 μM, PID30, vs DMSO. The protocol:
as §2

Data set [4] concerns HD-MSNs. Put plainly: HD-MSN death (SYTOX assay); survival of striatal neurons. It is filed as cell-based, human. As to conditions: treated from PID14 every four days for 16 days. The protocol: as §2
Data set [5] has as its system HD-MSNs. Description: Caspase 3/7 activation and Annexin V signal in HD-MSNs. It is filed as cell-based, human. As to conditions: HD-MSNs at PID30; 0.125, 0.25 or 0.5 uM. The protocol: as §2
The subject of data set [6] is mHTT inclusion bodies in HD-MSNs. Description: HTT inclusion bodies in HD-MSNs. It is filed as cell-based, human. As to conditions: 0.5 μM, PID30, vs DMSO. The protocol:
as §2

Data set [7] can be described thus: Liver microsomal stability, human. It is filed as in vitro ADME. The settings on record: human liver microsomes; read-out: LM stability Human t ½.
Source text: as §1

As to `O=c1ccc2c(Cl)cc(Cl)cc2[nH]1` [Ex 3, 5,7-dichloro-1H-quinolin-2-one], the half-life in data set [1] is 0.07 h. The p62/SQSTM1 protein levels entry with p62/SQSTM1 in HD-MSNs is “decreased p62/SQSTM1 protein levels”. Further, in the data set on HD-MSNs [2], the “number of autophagic vacuoles (CYTO-ID signals)” value is “increased the number of autophagic vacuoles”. In addition, in data set [3], the “average number of autophagosomes and autolysosomes” value was “increased the average number of autophagosomes and autolysosomes”. For the same compound, in the data set with HD-MSNs [4], the “HD-MSN death (SYTOX-positive cells)” value is recorded as “significant reduction in HD-MSN death in a dose-dependent manner”. Moreover, in the data set with HD-MSNs [5], the “Annexin V signal” value is recorded as “significant reduction” and the “activated Caspase 3/7 signal” value is reported as “significant reduction”. In addition, the “number of mHTT inclusion bodies” value in data set [6] is on record as “reduced the number of mHTT inclusion bodies”.

`O=c1ccc2c(C(F)(F)F)c(-c3ccc(Cl)cn3)ccc2[nH]1` [Ex 97, 6-(5-chloropyridin-2-yl)-5-(trifluoromethyl) quinolin-2 (1H)-one]: the half-life in data set [1] and in data set [7] was greater than 2.42 h each time.
